The numbers were not newly measured in publication PMC7645643 (Engineering in Life Sciences, 2020), which cites them from elsewhere.

Take Enfuvirtide [T-20]: the in vivo half-life entry is recorded as “approximately 4 h”.
